Experimental data from ChEMBL document CHEMBL3045592, “Studies of O,O-dimethyl α-(2,4-dichlorophenoxyacetoxy)ethylphosphonate (HW02) as a new herbicide. 1. Synthesis and herbicidal activity of HW02 and analogues as novel inhibitors of pyruvate dehydrogenase complex” (J Agric Food Chem, 2011).

Legend:
Echinochloa crus-galli [1] = test: Post-emergence herbicidal activity against Echinochloa crus-galli (barnyard grass) assessed as growth inhibition at 37.5 ai g/ha after 20 days by green house test; type: functional
[2] = Inhibition of PDHc in Oryza sativa (rice) shoot mitochondria assessed as decrease in rate of NADH formation using sodium pyruvate as substrate preincubated for 25 min before substrate addition measured after 1 min by spectrophotometric assay
Medicago sativa [3] = test: Post-emergence herbicidal activity against Medicago sativa (alfalfa) assessed as growth inhibition at 18.75 ai g/ha after 20 days by green house test; type: functional
Medicago sativa [4] = test: Post-emergence herbicidal activity against Medicago sativa (alfalfa) assessed as growth inhibition at 225 ai g/ha after 20 days by green house test; type: functional
[5] = Toxicity against Oryza sativa (rice) assessed as growth inhibition at 600 ai g/ha post-emergent application measured after 20 days by green house crop selectivity test; type: organism-based; conditions: in vivo, read-out: GI
Xanthium strumarium = test: Post-emergence herbicidal activity against Xanthium strumarium (cocklebur) assessed as growth inhibition at 150 ai g/ha after 20 days by green house test; type: functional
[6] = test system: Brassica rapa subsp. oleifera; test: Post-emergence herbicidal activity against Brassica rapa subsp. oleifera Si Yue Man assessed as growth inhibition at 600 ai g/ha after 20 days by green house test; type: functional
[7] = test system: Brassica rapa subsp. oleifera; test: Post-emergence herbicidal activity against Brassica rapa subsp. oleifera Si Yue Man assessed as growth inhibition at 37.5 ai g/ha after 20 days by green house test; type: functional
Cardamine hirsuta [8] = test: Post-emergence herbicidal activity against Cardamine hirsuta assessed as growth inhibition at 37.5 ai g/ha after 20 days by green house test; type: functional
[9] = test system: Brassica rapa subsp. oleifera; test: Post-emergence herbicidal activity against Brassica rapa subsp. oleifera Si Yue Man assessed as growth inhibition at 300 ai g/ha after 20 days by green house test; type: functional
[10] = test system: Brassica rapa subsp. oleifera; test: Post-emergence herbicidal activity against Brassica rapa subsp. oleifera Si Yue Man assessed as growth inhibition at 150 ai g/ha after 20 days by green house test; type: functional
[11] = test system: Brassica rapa subsp. oleifera; test: Post-emergence herbicidal activity against Brassica rapa subsp. oleifera Si Yue Man assessed as growth inhibition at 75 ai g/ha after 20 days by green house test; type: functional
Cardamine hirsuta [12] = test: Post-emergence herbicidal activity against Cardamine hirsuta assessed as growth inhibition at 300 ai g/ha after 20 days by green house test; type: functional
Medicago sativa [13] = test: Post-emergence herbicidal activity against Medicago sativa (alfalfa) assessed as growth inhibition at 37.5 ai g/ha after 20 days by green house test; type: functional
Cardamine hirsuta [14] = test: Post-emergence herbicidal activity against Cardamine hirsuta assessed as growth inhibition at 150 ai g/ha after 20 days by green house test; type: functional
Oryza sativa = test: Inhibition of PDHc in Oryza sativa (rice) shoot mitochondria assessed as decrease in rate of NADH formation using sodium pyruvate as substrate at 1 microg/g preincubated for 25 min before substrate addition measured after 1 min by spectrophotometric assay
Medicago sativa [15] = test: Post-emergence herbicidal activity against Medicago sativa (alfalfa) assessed as growth inhibition at 75 ai g/ha after 20 days by green house test; type: functional
Daucus carota [16] = test: Post-emergence herbicidal activity against Daucus carota (carrot) assessed as growth inhibition at 150 ai g/ha after 20 days by green house test; type: functional
Eclipta prostrata [17] = test: Post-emergence herbicidal activity against Eclipta prostrata assessed as growth inhibition at 75 ai g/ha after 20 days by green house test; type: functional
Echinochloa crus-galli [18] = test: Post-emergence herbicidal activity against Echinochloa crus-galli (barnyard grass) assessed as growth inhibition at 150 ai g/ha after 20 days by green house test; type: functional
[19] = Toxicity against Oryza sativa (rice) assessed as growth inhibition at 300 ai g/ha post-emergent application measured after 20 days by green house crop selectivity test; type: organism-based; conditions: in vivo, read-out: GI
[20] = Toxicity against Zea mays Gao you 1 (maize) assessed as growth inhibition at 600 ai g/ha post-emergent application measured after 20 days by green house crop selectivity test; type: organism-based; conditions: Gao you 1, zea mays, in vivo, read-out: GI
Eclipta prostrata [21] = test: Post-emergence herbicidal activity against Eclipta prostrata assessed as growth inhibition at 18.75 ai g/ha after 20 days by green house test; type: functional
Digitaria sanguinalis = test: Post-emergence herbicidal activity against Digitaria sanguinalis (hairy crabgrass) assessed as growth inhibition at 18.75 ai g/ha after 20 days by green house test; type: functional
Daucus carota [22] = test: Post-emergence herbicidal activity against Daucus carota (carrot) assessed as growth inhibition at 225 ai g/ha after 20 days by green house test; type: functional
Amaranthus retroflexus = test: Post-emergence herbicidal activity against Amaranthus retroflexus assessed as growth inhibition at 150 ai g/ha after 20 days by green house test; type: functional
[23] = Toxicity against Triticum aestivum Yang Mai 1 (wheat) assessed as growth inhibition at 225 ai g/ha post-emergent application measured after 20 days by green house crop selectivity test; type: organism-based; conditions: Yang Mai 1, triticum aestivum, in vivo, read-out: GI
[24] = Toxicity against Zea mays Gao you 1 (maize) assessed as growth inhibition at 150 ai g/ha post-emergent application measured after 20 days by green house crop selectivity test; type: organism-based; conditions: Gao you 1, zea mays, in vivo, read-out: GI

COP(=O)(OC)C(C)OC(=O)COc1ccc(Cl)cc1Cl (stereo not drawn) [CLACYFOS]
growth inhibition (GI) (Echinochloa crus-galli [1]): 0% | IC50 [2]: 867 µM | growth inhibition (GI) (Medicago sativa [3]): 60% | growth inhibition (GI) (Medicago sativa [4]): 95% | inhibition at 480 h [5]: 0% | growth inhibition (GI) (Xanthium strumarium): 90% | growth inhibition (GI) [6]: 100% | growth inhibition (GI) [7]: 90% | growth inhibition (GI) (Cardamine hirsuta [8]): 84% | growth inhibition (GI) [9]: 100% | growth inhibition (GI) [10]: 97% | growth inhibition (GI) [11]: 92.5% | growth inhibition (GI) (Cardamine hirsuta [12]): 100% | growth inhibition (GI) (Medicago sativa [13]): 72% | growth inhibition (GI) (Cardamine hirsuta [14]): 92.5% | inhibition (Oryza sativa): 8.2% | growth inhibition (GI) (Medicago sativa [15]): 84% | growth inhibition (GI) (Daucus carota [16]): 95% | growth inhibition (GI) (Eclipta prostrata [17]): 82.5% | growth inhibition (GI) (Echinochloa crus-galli [18]): 0% | inhibition at 480 h [19]: 0% | inhibition at 480 h [20]: 0% | growth inhibition (GI) (Eclipta prostrata [21]): 56% | growth inhibition (GI) (Digitaria sanguinalis): 0% | growth inhibition (GI) (Daucus carota [22]): 97% | growth inhibition (GI) (Amaranthus retroflexus): 96% | inhibition at 480 h [23]: 0% | inhibition at 480 h [24]: 0%
